From patent US20240140947A1, “COMPOUND FOR THE TREATMENT OF CANCER” (priority 2022, published 2024)
Like-named read-outs stand apart in the source and are kept apart here.

Columns and labels:
[1] = tested on: phosphorylation of Rb protein at serines 807/811 in OVCAR3 cells; experiment: Phospho-Serine 807/811 Rb ELISA in OVCAR3 cells; format: cell-based; settings: Homo sapiens, read-out: IC50 ± SEM, modulation of pRB Serine 807/811
Method: (§1) Cellular CDK activity of Compound 1 and PF-06873600 were assessed in human CCNE1-amplified ovarian cancer cell line model OVCAR3 and human ER+ breast cancer cell line model MCF7 cells. […] OVCAR3 cells were treated overnight with 1 mM hydroxyurea to enrich for G1/S phase cells prior to treatment with inhibitors. Functional effects were measured in a 7-day anti-proliferation assay in one human ovarian cancer (OVCAR3), two human ER+ breast cancer (MCF7 and T47D) and three human non-small cell lung cancer (NCIH2087, NCIH358 and A549) cell line models.
OVCAR3 or MCF7 cells were seeded at 25,000 cells/well in 100 μL growth media and allowed to adhere at 37° C. with 5% CO2 overnight. OVCAR3 cells were treated overnight with 1 mM hydroxyurea to enrich for G1/S phase cells prior to treatment with inhibitors. The following day, compounds were serially diluted from a 10 mM top dose for an 11-point 3-fold dilution curve in DMSO. Compound 1 and PF-06873600 were intermediately diluted 1:200 into growth media prior to diluting 1:5 on cells for final concentration 10 μM to 0.1 nM in 0.1% DMSO on cells. […] Plates were read in luminescence mode and IC50 values calculated.
The cellular activity of Compound 1 was evaluated in ER+, HER2− MCF7 cells and CCNE1-amplified ovarian carcinoma. Activity was determined by inhibition of phosphorylation of […]

[2] = tested on: MCF7 parental; experiment: Cell proliferation assay (CYQUANT, 7 days), MCF7 parental; format: cell-based; settings: Homo sapiens, read-out: IC50 ± SEM, proliferation inhibition
Method: as §1
(§2) OVCAR3, MCF7, T47D, HCC1428, NCIH2087, NCIH358 or A549cells were seeded 1-3000 cells/well in 96-well plates in growth media containing 10% FBS and cultured overnight at 37° C. 5% CO2. The following day, compounds were serially diluted from a 10 mM top dose for an 11-point 3-fold dilution curve in DMSO. […] CYQUANT Direct Cell Proliferation Assay (Molecular Probes, Eugene, OR) was then performed following manufacturer recommendations to determine the relative viable cell numbers on the Perkin Elmer Envision 2104 Multi Label Reader at 508 nm excitation and 527 nm emission wavelengths. IC50 values were calculated by concentration-response curve fitting utilizing a four-parameter analytical method using GraphPad Prism software.

[3] = tested on: T47D PalboR; experiment: Cell proliferation assay (CYQUANT, 7 days), T47D PalboR; format: cell-based; settings: Homo sapiens, 168 h, read-out: IC50 ± SEM, proliferation inhibition
Method: as §1
as §2, with “CO2.” for “CO2. The following day, compounds were serially diluted from a 10 mM top dose for an 11-point 3-fold dilution curve in DMSO.”
(§3) The effect of Compound 1 on cell proliferation was assessed in multiple ER+ breast cancer cell lines, including parental and palbociclib resistant cell lines.

[4] = tested on: HCC1428 parental; experiment: Cell proliferation assay (CYQUANT, 7 days), HCC1428 parental; format: cell-based; settings: Homo sapiens, read-out: IC50 ± SEM, proliferation inhibition
Method: OVCAR3, MCF7, T47D, HCC1428, NCIH2087, NCIH358 or A549cells were seeded 1-3000 cells/well in 96-well plates in growth media containing 10% FBS and cultured overnight at 37° C. 5% CO2. The following day, compounds were serially diluted from a 10 mM top dose for an 11-point 3-fold dilution curve in DMSO. Compound 1 and PF-06873600 were intermediately diluted 1:200 into growth media prior to diluting 1:5 on cells for final concentration 10 μM to 0.1 nM in 0.1% DMSO on cells. Cells were incubated at 37° C. 5% CO2 for 7 days. CYQUANT Direct Cell Proliferation Assay (Molecular Probes, Eugene, OR) was then performed following manufacturer recommendations to determine the relative viable cell numbers on the Perkin Elmer Envision 2104 Multi Label Reader at 508 nm excitation and 527 nm emission wavelengths. IC50 values were calculated by concentration-response curve fitting utilizing a four-parameter analytical method using GraphPad Prism software.
as §3

[5] = tested on: OVCAR3; experiment: Cell proliferation assay (CYQUANT, 7 days), OVCAR3; format: cell-based; settings: Homo sapiens, OVCAR-3, 168 h, read-out: IC50 ± SEM, proliferation inhibition
Method: as §1, §2

[6] = tested on: NCIH358; experiment: Cell proliferation assay (CYQUANT, 7 days), NCIH358; format: cell-based; settings: Homo sapiens, NCI-H358, 168 h, read-out: IC50 ± SEM, proliferation inhibition
Method: as §1, §2

[7] = tested on: A549; experiment: Cell proliferation assay (CYQUANT, 7 days), A549; format: cell-based; settings: Homo sapiens, read-out: IC50 ± SEM, proliferation inhibition
Method: as §1, §2

[8] = Human blood binding (fub = fup/BPR); format: in vitro ADME; settings: fup divided by BPR
Method: Compound 1 has been evaluated according to methods well known in the art, for its ability to partition between human plasma and blood. Based on the observed partitioning and plasma protein binding, the blood binding was estimated based on human blood unbound fraction (fub)=human plasma unbound fraction (fup)/human blood-to-plasma partition ratio (BPR). Human blood unbound fraction (fub) was calculated by dividing fup by BPR.

[9] = Prediction of human clearance, volume of distribution and elimination half-life; settings: for Mean Vdss unbound: (mean animal Vdss unbound values): Wistar-Hannover (rat), rat and/or dog, iv; for CLb: predicted total clearance: scaled from CLint HHEP and fub, Q=20 ml/min/kg
Method: To determine and compare the predicted human elimination half-lives, compounds 1-4 were evaluated for their human blood-to-plasma partition ratio (BPR) along with other key in vitro ADME data including metabolic stability in human hepatocytes (CL, nt HHEP).
The predicted total clearance in human (CLb) was first determined based on the in vitro human metabolism data shown below using the equation:
CLb=(Q·fub·CLintHHEP)/[(Q+fub)·CLintHHEP]
(Scaling Clint HHEP from μl/min/M to ml/min/kg based on hepatocellularity (120×10^6/ g liver), g of liver per Kg bodyweight (21g/Kg), assuming hepatocyte binding is negligible and liver blood flow Q=20 ml/min/kg.)
The projected human volume of distribution at steady state in human blood (Vdss_human) was then calculated based on the animal (rat and/or dog) PK data. The Vdss_human was calculated factoring in differences in blood binding across compounds. Due to the high blood-to-plasma partition ratio in Compounds 1 and 4, the corresponding Vdss_human was limited to the blood volume with Vdss_human estimated to be 0.07 L/Kg.
Using the estimates of CLb and Vdss_human, the predicted human elimination half-lives of compounds 1-4 were calculated according to the equation:
Half-life=0.693·Vdss_human/CLb

Row | Compound | IC50 ([1]; OVCAR-3, 1 h) | IC50 ([2]; MCF7, 168 h) | IC50 ([3]; T47D) | IC50 ([4]; HCC1428, 168 h) | IC50 [5] | IC50 [6] | IC50 ([7]; A549, 168 h) | fraction unbound [8] | Mean Vdss unbound: (mean animal Vdss unbound values) [9] | Vdss—human: projected volume of distribution (steady state) ([9]; human) | CLb: predicted total clearance ([9]; human) | IC50 ([1]; OVCAR-3, OVCAR3, mean, treated 1 h after overnight 1 mM hydroxyurea) | IC50 ([2]; 168 h, MCF7 parental, 7 days, mean) | IC50 ([3]; T47D PalboR, 7 days, mean) | IC50 ([4]; 168 h, HCC1428 parental, 7 days, mean) | IC50 ([5]; OVCAR3, 7 days, mean) | IC50 ([6]; NCIH358, 7 days, mean) | IC50 ([7]; 168 h, A549, 7 days, mean) | (adjusted) predicted t1/2 based on PF-06873600's observed t1/2 ([9]; human) | Vdss—human limited to the blood volume (lower limit) ([9]; human)
1 | C[C@@]1(O)CCC[C@H]1n1c(=O)c(C(F)F)cc2cnc(NC3CCN(S(C)(=O)=O)CC3)nc21 [Compound 2, reference compound] | 21.8 nM | 38.6 ± 10.2 nM | 253 ± 55.1 nM | 96.7 ± 26.4 nM | 70 ± 11.7 nM | 39 nM | 189 nM | 0.32 | 2.8 L/kg | 0.9 L/kg | 1.5 mL/min/kg | – | – | – | – | – | – | – | – | –
2 | C[C@@]1(O)CCC[C@H]1n1c(=O)c(CC(F)F)cc2cnc(NC3CCN(S(N)(=O)=O)CC3)nc21 [Compound 1, 4-({6-(2,2-difluoroethyl)-8-[(1R,2R)-2-hydroxy-2-methylcyclopentyl]-7-oxo-7,8-dihydropyrido[2,3-d]pyrimidin-2-yl}amino)piperidine-1-sulfonamide] | – | – | – | – | – | – | – | 0.0022 | 8.8 L/kg | 0.019 L/kg L/Kg | 0.011 mL/min/kg | 16.2 nM | 16.8 ± 6.7 nM | 65.7 ± 8.8 nM | 14.3 ± 4.4 nM | 11.4 nM | 21 ± 2.2 nM | 121 ± 10.1 nM | 34 h | 0.07 L/kg
